27 molecules from patent US9682976B2, “Protein kinase C inhibitors and uses thereof” (Rigel Pharmaceuticals, Inc., priority 2012, dated 2017) can be followed below.

Structures are written as SMILES. Counter-ions that a name gives are not always drawn.

One test has as its system PKC mediated IL-2 production. The test can be described thus: IL-2 ELISA, human primary T cell, anti CD3+CD28+. It counts as cell-based. As to conditions: Homo sapiens, T-cell, 24 h, human primary T cells stimulated with αCD3 and αCD28, 24 hours. On the procedure: Compounds 1-328 were tested in a whole cell functional assay for PKC mediated IL-2 production as follows. Human primary T cell isolation and culture: Human primary T cells were prepared as follows. Whole blood was obtained from a healthy volunteer, mixed 1:1 with PBS, layered on to Ficoll Hypaque (Amersham Pharmacia Biotech, Piscataway, N.J., Catalog #17-1440-03) in 2:1 blood/PBS:ficoll ratio and centrifuged for 30 minutes at 4° C. at 1750 rpm. The cells at the serum: ficoll interface were recovered and washed twice with 5 volumes of PBS. These freshly isolated human peripheral blood mononuclear cells were cultured in Yssel's medium containing 40 U/ml IL2 in a flask pre-coated with […] αCD3 and 5 μg/ml αCD28 (Anti-Human CD3, BD Pharmingen Catalog #555336, Anti-Human CD28, Beckman Coulter Catalog #IM1376). The cells were stimulated for 3-4 days, then transferred to a fresh flask and maintained in RPMI (RPMI-1640 with L-Glutamine; Mediatech, Inc., Herndon Va., cat. #10-040-CM) with 10% FBS and 40 U/ml IL-2. The primary T-cells were then washed twice with PBS to remove the IL-2.
Primary T cell stimulation and IL2 ELISA: Human primary T cells (100,000 cells per well) were pre-incubated with or without test compound in Yssel's medium for 1 hour at 37° C. Cells were then stimulated by transferring them to round-bottom 96-well plates pre-coated with […] αCD3 and 5 μg/ml αCD28. For counter assay, cells were instead stimulated by adding 8× stock solutions of PMA and ionomycin in Yssels (for final concentrations of 0.5 ng/ml PMA and 0.1 uM ionomycin, both from Calbiochem). Cells were incubated at 37° C. for 24 hours before 100 μL supernatants were harvested for quantification of IL-2 by ELISA using Human IL-2 Duoset ELISA Kit from R and D Systems, Cat. # DY202E.
For the molecule `Cn1nnn(-c2cc(Nc3ncc(F)c(NC4CCN5C(CCC5(C)C)C4)n3)c(F)cc2C2CC2)c1=O` (single isomer, unassigned) [Compound 34, 1-(5-(5-fluoro-4-(octahydro-3,3-dimethylindolizin-7-ylamino)pyrimidin-2-ylamino)-2-cyclopropyl-4-fluorophenyl)-4-methyl-1H-tetrazol-5(4H)-one], the concentration for a half-maximal effect (EC50) (as a rule, the concentration at which the effect is half-maximal) was 1000 to 10000 nM.

As for `Cn1nnn(-c2cc(Nc3ncc(F)c(NC4CC5CCCN5C(C)(C)C4)n3)ccc2OC2COC2)c1=O` (single isomer, unassigned) [Compound 39, 1-(5-(5-fluoro-4-(octahydro-5,5-dimethylindolizin-7-ylamino)pyrimidin-2-ylamino)-2-(oxetan-3-yloxy)phenyl)-4-methyl-1H-tetrazol-5(4H)-one], the EC50 fell in the range of 100 to 500 nM.

Molecule `CC1(C)CC(Nc2nc(Nc3cc(-n4cnnn4)c(C4CC4)cc3F)ncc2F)CC2CCCN21` (single isomer, unassigned) [Compound 54, N^2-(4-cyclopropyl-2-fluoro-5-(1H-tetrazol-1-yl)phenyl)-5-fluoro-N^4-(octahydro-5,5-dimethylindolizin-7-yl)pyrimidine-2,4-diamine] returned an EC50 of less than 100 nM.

Take `Cn1nnn(-c2cc(Nc3ncc(F)c(N[C@@H]4C[C@@H]5CCCN5C(C)(C)C4)n3)ccc2OC2CCOCC2)c1=O` (stereo in doubt) [Compound 52, 1-(5-(5-fluoro-4-(octahydro-5,5-dimethylindolizin-7-ylamino)pyrimidin-2-ylamino)-2-(tetrahydro-2H-pyran-4-yloxy)phenyl)-4-methyl-1H-tetrazol-5(4H)-one]: the EC50 fell in the range of 100 to 500 nM.

Take `Cn1nnn(-c2cc(Nc3ncc(F)c(N[C@H]4C[C@H]5CCCN5C(C)(C)C4)n3)c(F)cc2C2CC2)c1=O` [Compound 18, 1-(5-(4-((7S,8aR)-Octahydro-5,5-dimethylindolizin-7ylamino)-5-fluoropyrimidin-2-ylamino)-2-cyclopropyl-4-fluorophenyl)-4-methyl-1H-tetrazol-5(4H)-one]: the concentration for a half-maximal effect (EC50) lay in the range of 500 to 1000 nM.

As to `COc1cc(F)c(Nc2ncc(F)c(N[C@@H]3C[C@@H]4CCCN4C(C)(C)C3)n2)cc1-n1nnn(C)c1=O` [Compound 22, 1-(5-(4-((7R,8aS)-5,5-dimethyl-octahydroindolizin-7-ylamino)-5-fluoropyrimidin-2-ylamino)-4-fluoro-2-methoxyphenyl)-4-methyl-1H-tetrazol-5(4H)-one], the EC50 is 100 to 500 nM.

Take `Cn1nnn(-c2cc(Nc3ncc(F)c(NC4CC5CCCN5C(C)(C)C4)n3)ccc2OC2COC2)c1=O` (stereo not drawn) [Compound 40, 1-(5-(5-fluoro-4-(octahydro-5,5-dimethylindolizin-7-ylamino)pyrimidin-2-ylamino)-2-(oxetan-3-yloxy)phenyl)-4-methyl-1H-tetrazol-5(4H)-one]: the EC50 was less than 100 nM.

`CC1(C)CC(Nc2nc(Nc3ccc(OC4CCOCC4)c(C#N)c3)ncc2F)CC2CCCN21` (stereo not drawn) [Compound 41, 5-(5-fluoro-4-(octahydro-5,5-dimethylindolizin-7-ylamino)pyrimidin-2-ylamino)-2-(tetrahydro-2H-pyran-4-yloxy)benzonitrile] showed a half-maximal effective concentration (EC50) of 100 to 500 nM.

The same test, now with this note: human primary T cells stimulated with αCD3 and αCD28, 24 hours.
`COc1cc(Nc2ncc(F)c(N[C@H]3C[C@@H]4CCCN4C(C)(C)C3)n2)cc(-n2nnnc2C)c1` (single isomer, unassigned) [Compound 13, (R/S, S/R, R/R, S/S)-5-fluoro-N4-(octahydro-5,5-dimethylindolizin-7-yl)N2-(3-methoxy-5-(5-methyl-1H-tetrazol-1-yl)phenyl)pyrimidine-2,4-diamine] returned an EC50 of less than 100 nM.

`COc1cc(Nc2ncc(F)c(N[C@@H]3C[C@@H]4CCCN4C(C)(C)C3)n2)cc(-n2nnnc2C)c1` (single isomer, unassigned) [Compound 14, (R/S, S/R, R/R, S/S)-5-fluoro-N4-(octahydro-5,5-dimethylindolizin-7-yl)N2-(3-methoxy-5-(5-methyl-1H-tetrazol-1-yl)phenyl)pyrimidine-2,4-diamine] registered an EC50 of less than 100 nM.

In turn, `Cn1nnn(-c2cc(Nc3ncc(F)c(NC4CCN5C(CCC5(C)C)C4)n3)c(F)cc2C2CC2)c1=O` (single isomer, unassigned) [Compound 35, 1-(5-(5-fluoro-4-(octahydro-3,3-dimethylindolizin-7-ylamino)pyrimidin-2-ylamino)-2-cyclopropyl-4-fluorophenyl)-4-methyl-1H-tetrazol-5(4H)-one] registered an EC50 of 1000 to 10000 nM.

In the case of `Cn1nnn(-c2cc(Nc3ncc(F)c(N[C@@H]4CCN5[C@@H](CCC5(C)C)C4)n3)c(F)cc2C2CC2)c1=O` (single isomer, unassigned) [Compound 36], the EC50 fell in the range of 1000 to 10000 nM.

As to `Cn1nnn(-c2cc(Nc3ncc(F)c(N[C@H]4CCN5[C@@H](CCC5(C)C)C4)n3)c(F)cc2C2CC2)c1=O` (single isomer, unassigned) [Compound 37], the EC50 was in the range of 1000 to 10000 nM.

Regarding `CC1(C)CC(Nc2nc(Nc3cc(-n4cnnn4)c(C4CC4)cc3F)ncc2F)CC2CCCN21` (single isomer, unassigned) [Compound 55, N^2-(4-cyclopropyl-2-fluoro-5-(1H-tetrazol-1-yl)phenyl)-5-fluoro-N^4-(octahydro-5,5-dimethylindolizin-7-yl)pyrimidine-2,4-diamine], the concentration giving a half-maximal response (EC50) fell in the range of 100 to 500 nM.

On to `CC1(C)CC(Nc2nc(Nc3ccc(O[C@@H]4CCOC4)c(C#N)c3)ncc2F)CC2CCCN21` (single isomer, unassigned) [Compound 58], for which the concentration giving a half-maximal response (EC50) is 1000 to 10000 nM.

On to `CC1(C)CC(Nc2nc(Nc3ccc(O[C@@H]4CCOC4)c(C#N)c3)ncc2F)CC2CCCN21` (single isomer, unassigned) [Compound 59], for which the EC50 fell in the range of 100 to 500 nM.

As to `CC1(C)CC(Nc2nc(Nc3ccc(O[C@H]4CCOC4)c(C#N)c3)ncc2F)CC2CCCN21` (single isomer, unassigned) [Compound 61], the concentration for a half-maximal effect (EC50) was in the range of 500 to 1000 nM.

`CC1(C)CC(Nc2nc(Nc3ccc(O[C@H]4CCOC4)c(C#N)c3)ncc2F)CC2CCCN21` (single isomer, unassigned) [Compound 62] registered an EC50 of 100 to 500 nM.

On to `Cn1nc2n(c1=O)-c1cc(Nc3ncc(F)c(N[C@@H]4C[C@@H]5CCCN5C(C)(C)C4)n3)ccc1OCC2(C)O` (single isomer, unassigned) [Compound 294], for which the concentration for a half-maximal effect (EC50) was 500 to 1000 nM.

For the molecule `CC1(C)Oc2ccc(Nc3ncc(F)c(N[C@H]4C[C@H]5CCCN5C(C)(C)C4)n3)cc2-n2nnnc21` [Compound 1, N2-(4,4-dimethyl-4H-benzo[b]tetrazolo[1,5-d][1,4]oxazin-8-yl)-5-fluoro-N4-(octahydro-5,5-dimethylindolizin-7-amine)pyrimidine-2,4-diamine], the concentration for a half-maximal effect (EC50) was 100 to 500 nM.

In the case of `CC1(C)Oc2ccc(Nc3ncc(F)c(N[C@@H]4C[C@H]5CCCN5C(C)(C)C4)n3)cc2-n2nnnc21` [Compound 2, N2-(4,4-dimethyl-4H-benzo[b]tetrazolo[1,5-d][1,4]oxazin-8-yl)-5-fluoro-N4-(octahydro-5,5-dimethylindolizin-7-amine)pyrimidine-2,4-diamine], the concentration for a half-maximal effect (EC50) was less than 100 nM.

In the case of `CC1(C)Oc2ccc(Nc3ncc(F)c(N[C@@H]4C[C@@H]5CCCN5C(C)(C)C4)n3)cc2-n2nnnc21` [Compound 4, N2-(4,4-dimethyl-4H-benzo[b]tetrazolo[1,5-d][1,4]oxazin-8-yl)-5-fluoro-N4-(octahydro-5,5-dimethylindolizin-7-amine)pyrimidine-2,4-diamine], the EC50 fell in the range of 1000 to 10000 nM.

Regarding `CC1(C)Oc2c(F)cc(Nc3ncc(F)c(NC4CC5CCCN5C(C)(C)C4)n3)cc2-n2nnnc21` (stereo not drawn) [Compound 5], the EC50 lay within 100 to 500 nM.

For the molecule `CC(C)N1CCC(Oc2ccc(Nc3ncc(F)c(NC4CC5CCCN5C(C)(C)C4)n3)cc2OC(F)F)CC1` (stereo not drawn) [Compound 6, (R/S, S/R, R/R, S/S)-N^2-(4-(1-isopropylpiperidin-4-yloxy)-3-(difluoromethoxy)phenyl)-5-fluoro-N^4-(octahydro-5,5-dimethylindolizin-7-yl)pyrimidine-2,4-diamine], the half-maximal effective concentration (EC50) is 100 to 500 nM.

Consider `Cc1ncc(Nc2ncc(F)c(NC3CC4CCCN4C(C)(C)C3)n2)cc1-n1nnnc1C` (stereo not drawn) [Compound 15], for which the EC50 is 100 to 500 nM.

As for `Cn1nnn(-c2cc(Nc3ncc(F)c(NC4CCN5CCCC5C4)n3)c(F)cc2C2CC2)c1=O` (stereo not drawn) [Compound 29], the 50% effective concentration (EC50) lay within 1000 to 10000 nM.

Molecule `Cn1nnn(-c2cc(Nc3ncc(F)c(N[C@H]4C[C@@H]5CCC(=O)N5C(C)(C)C4)n3)c(F)cc2C2CC2)c1=O` [Compound 33, 1-(5-(5-fluoro-4-(hexahydro-5,5-dimethylindolizin-3(5H)-one-7-ylamino)pyrimidin-2-ylamino)-2-cyclopropyl-4-fluorophenyl)-4-methyl-1H-tetrazol-5(4H)-one formate] came in with a concentration for a half-maximal effect (EC50) of 1000 to 10000 nM.
